For data set [1], the system named is Salmonella enterica. Put plainly: Antibacterial activity against Salmonella enterica 8389 assessed as inhibition of visible growth incubated for 16 to 18 hrs by CLSI method. The class given is functional. To be noted: time 16-18 hrs, read-out: MIC100.
Data set [2] has as its system Staphylococcus aureus. Put plainly: Antibacterial activity against methicillin-resistant Staphylococcus aureus clinical isolate M-19 assessed as inhibition of visible growth incubated for 16 to 18 hrs by CLSI method. It counts as functional. The conditions noted are these: time 16-18 hrs, read-out: MIC100.
The subject of data set [3] is Staphylococcus aureus. Put plainly: Antibacterial activity against methicillin-resistant Staphylococcus aureus clinical isolate M-15 assessed as inhibition of visible growth incubated for 16 to 18 hrs by CLSI method. The class given is functional. To be noted: time 16-18 hrs, read-out: MIC100.
The subject of data set [4] is Staphylococcus aureus. Put plainly: Antibacterial activity against Staphylococcus aureus ATCC29213 assessed as inhibition of visible growth incubated for 16 to 18 hrs by CLSI method. The conditions noted are these: time 16-18 hrs, read-out: MIC100. The class given is functional.
Data set [5] has as its system Staphylococcus aureus. Put plainly: Antibacterial activity against methicillin-resistant Staphylococcus aureus clinical isolate M-16 assessed as inhibition of visible growth incubated for 16 to 18 hrs by CLSI method. The class given is functional. To be noted: time 16-18 hrs, read-out: MIC100.
Data set [6] concerns Staphylococcus aureus. Put plainly: Antibacterial activity against methicillin-resistant Staphylococcus aureus clinical isolate M-13 assessed as inhibition of visible growth incubated for 16 to 18 hrs by CLSI method. It counts as functional. To be noted: time 16-18 hrs, read-out: MIC100.
The subject of a further data set is Escherichia coli. Put plainly: Antibacterial activity against Escherichia coli ATCC25922 assessed as inhibition of visible growth incubated for 16 to 18 hrs by CLSI method. The class given is functional. The conditions noted are these: time 16-18 hrs, read-out: MIC100.
Data set [7] concerns Staphylococcus aureus. Put plainly: Antibacterial activity against methicillin-resistant Staphylococcus aureus clinical isolate M-14 assessed as inhibition of visible growth incubated for 16 to 18 hrs by CLSI method. The class given is functional. The conditions noted are these: time 16-18 hrs, read-out: MIC100.
The test system of data set [8] is Staphylococcus aureus. Put plainly: Antibacterial activity against methicillin-resistant Staphylococcus aureus clinical isolate M-18 assessed as inhibition of visible growth incubated for 16 to 18 hrs by CLSI method. The class given is functional. To be noted: time 16-18 hrs, read-out: MIC100.
The nature of data set [9]: Hemolytic activity in sheep RBC assessed as hemolysis incubated for 1 hr. It counts as ADME, cell-based, Ovis aries, Erythrocyte. The conditions noted are these: sheep red blood cells (erythrocytes).
Data set [10] has as its system Staphylococcus aureus. Put plainly: Antibacterial activity against methicillin-resistant Staphylococcus aureus clinical isolate M-17 assessed as inhibition of visible growth incubated for 16 to 18 hrs by CLSI method. It counts as functional. The conditions noted are these: time 16-18 hrs, read-out: MIC100.
The subject of data set [11] is Salmonella enterica. Put plainly: Antibacterial activity against Salmonella enterica 349812 assessed as inhibition of visible growth incubated for 16 to 18 hrs by CLSI method. The class given is functional. To be noted: time 16-18 hrs, read-out: MIC100.
For data set [12], the system named is Staphylococcus aureus. Put plainly: Antibacterial activity against methicillin-resistant Staphylococcus aureus clinical isolate M-11 assessed as inhibition of visible growth incubated for 16 to 18 hrs by CLSI method. The conditions noted are these: time 16-18 hrs, read-out: MIC100. It counts as functional.
A further data set relates to Enterococcus faecalis. Put plainly: Antibacterial activity against Enterococcus faecalis ATCC29212 assessed as inhibition of visible growth incubated for 16 to 18 hrs by CLSI method. It counts as functional. To be noted: time 16-18 hrs, read-out: MIC100.
The subject of data set [13] is Stenotrophomonas maltophilia. Put plainly: Antibacterial activity against Stenotrophomonas maltophilia assessed as inhibition of visible growth incubated for 16 to 18 hrs by CLSI method. To be noted: time 16-18 hrs, read-out: MIC100. It counts as functional.
Data set [14] is described as follows: Selectivity index, HC50 for hemolytic activity in sheep RBC to MIC for antibacterial activity against Staphylococcus aureus ATCC29213. The class given is toxicity. The conditions noted are these: sheep red blood cells (erythrocytes), read-out: Selectivity Index.
The subject of data set [15] is Staphylococcus aureus. Put plainly: Antibacterial activity against methicillin-resistant Staphylococcus aureus clinical isolate M-20 assessed as inhibition of visible growth incubated for 16 to 18 hrs by CLSI method. It counts as functional. To be noted: time 16-18 hrs, read-out: MIC100.
In data set [16] the test system is Staphylococcus aureus. Put plainly: Antibacterial activity against methicillin-resistant Staphylococcus aureus clinical isolate M-12 assessed as inhibition of visible growth incubated for 16 to 18 hrs by CLSI method. It counts as functional. The conditions noted are these: time 16-18 hrs, read-out: MIC100.
For another data set, the system named is Micrococcus luteus. Put plainly: Antibacterial activity against Micrococcus luteus assessed as inhibition of visible growth incubated for 16 to 18 hrs by CLSI method. The conditions noted are these: time 16-18 hrs, read-out: MIC100. It counts as functional.
For a further data set, the system named is Bacillus subtilis. Put plainly: Antibacterial activity against Bacillus subtilis assessed as inhibition of visible growth incubated for 16 to 18 hrs by CLSI method. The class given is functional. The conditions noted are these: time 16-18 hrs, read-out: MIC100.

Each structure is given as a SMILES string. A value given as a limit tells only on which side of the number the result lay.

As for `C=CCc1ccc(OCCCC[N+](C)(C)CC(=O)NCCCCCC)c(-c2ccc(OCCCC[N+](C)(C)CC(=O)NCCCCCC)c(CC=C)c2)c1.[Br-].[Br-]`, the MIC in the data set on Salmonella enterica [1] stood at 8 µg/mL; in the data set on Staphylococcus aureus [2], 4 µg/mL; in the data set with Staphylococcus aureus [3] it was 8 µg/mL; in the data set with Staphylococcus aureus [4] it was 4 µg/mL; with Staphylococcus aureus [5], 8 µg/mL; in the data set on Staphylococcus aureus [6] it was 2 µg/mL. In addition, the MIC in the data set on Escherichia coli came out at 16 µg/mL; with Staphylococcus aureus [7], 8 µg/mL; with Staphylococcus aureus [8], 4 µg/mL; in the data set with Staphylococcus aureus [10], 4 µg/mL; in the data set on Salmonella enterica [11], 16 µg/mL; with Staphylococcus aureus [12], 2 µg/mL. Besides, the MIC was 2 µg/mL in the data set on Enterococcus faecalis; 8 µg/mL in data set [13]; 4 µg/mL in the data set on Staphylococcus aureus [15]; 2 µg/mL in the data set with Staphylococcus aureus [16]; 2 µg/mL in the data set with Micrococcus luteus; 4 µg/mL in the data set on Bacillus subtilis. The HC50 at 1 h in data set [9] turned out to be 573 µg/mL. The selectivity ratio in [14] came out at 143.
With `C=CCc1ccc(O)c(-c2cc(CC=C)ccc2OCC[N+](C)(C)CC(=O)NCCCC)c1.[Br-]`, the MIC worked out at 32 µg/mL with Salmonella enterica [1]; 4 µg/mL in the data set with Staphylococcus aureus [2]; 4 µg/mL in the data set with Staphylococcus aureus [3]; 4 µg/mL in the data set on Staphylococcus aureus [4]; 4 µg/mL in the data set on Staphylococcus aureus [5]; 8 µg/mL in the data set on Staphylococcus aureus [6]. Besides, the MIC is 32 µg/mL in the data set with Escherichia coli; 4 µg/mL in the data set with Staphylococcus aureus [7]; 4 µg/mL with Staphylococcus aureus [8]; 4 µg/mL in the data set with Staphylococcus aureus [10]; 32 µg/mL in the data set with Salmonella enterica [11]; 8 µg/mL with Staphylococcus aureus [12]. Also, the MIC in the data set with Enterococcus faecalis turned out to be 8 µg/mL; in [13], 32 µg/mL; in the data set with Staphylococcus aureus [15], 4 µg/mL; with Staphylococcus aureus [16], 8 µg/mL; in the data set with Micrococcus luteus it was 4 µg/mL; in the data set with Bacillus subtilis it was 2 µg/mL. Besides, the HC50 at 1 h in data set [9] came out at 573 µg/mL. For the same compound, in data set [14], the selectivity ratio stood at 143.
As to `C=CCc1ccc(OCC[N+](C)(C)CC(=O)N(CCCC)CCCC)c(-c2ccc(OCC[N+](C)(C)CC(=O)N(CCCC)CCCC)c(CC=C)c2)c1.[Br-].[Br-]`, the MIC was determined as 32 µg/mL in the data set with Salmonella enterica [1]; 8 µg/mL in the data set with Staphylococcus aureus [2]; 2 µg/mL in the data set with Staphylococcus aureus [3]; 4 µg/mL in the data set with Staphylococcus aureus [4]; 2 µg/mL with Staphylococcus aureus [5]; 4 µg/mL in the data set with Staphylococcus aureus [6]. Further, the MIC was found to be 16 µg/mL with Escherichia coli; 4 µg/mL in the data set on Staphylococcus aureus [7]; 8 µg/mL in the data set with Staphylococcus aureus [8]; 2 µg/mL in the data set with Staphylococcus aureus [10]; 32 µg/mL with Salmonella enterica [11]; 4 µg/mL with Staphylococcus aureus [12]. Also, the MIC with Enterococcus faecalis is 2 µg/mL; in [13], 32 µg/mL; in the data set on Staphylococcus aureus [15], 8 µg/mL; in the data set with Staphylococcus aureus [16] it was 4 µg/mL; with Micrococcus luteus, 4 µg/mL; in the data set with Bacillus subtilis, 4 µg/mL. In addition, the HC50 at 1 h in data set [9] was greater than 1280 µg/mL. In addition, the selectivity ratio in data set [14] is greater than 320.
Turning to `C=CCc1ccc(OCCC[N+](C)(C)CC(=O)NCCCCCC)c(-c2ccc(OCCC[N+](C)(C)CC(=O)NCCCCCC)c(CC=C)c2)c1.[Br-].[Br-]`, the MIC in the data set on Salmonella enterica [1] came to 2 µg/mL; in the data set on Staphylococcus aureus [2], 4 µg/mL; in the data set with Staphylococcus aureus [3] it was 4 µg/mL; in the data set with Staphylococcus aureus [4] it was 4 µg/mL; with Staphylococcus aureus [5], 4 µg/mL; with Staphylococcus aureus [6] it was 4 µg/mL. Further, the MIC in the data set with Escherichia coli came out at 8 µg/mL; in the data set with Staphylococcus aureus [7] it was 4 µg/mL; with Staphylococcus aureus [8], 4 µg/mL; in the data set with Staphylococcus aureus [10], 4 µg/mL; in the data set with Salmonella enterica [11], 4 µg/mL; with Staphylococcus aureus [12] it was 4 µg/mL. The MIC in the data set with Enterococcus faecalis worked out at 4 µg/mL; in [13] it was 8 µg/mL; in the data set on Staphylococcus aureus [15] it was 4 µg/mL; in the data set on Staphylococcus aureus [16], 4 µg/mL; with Micrococcus luteus, 2 µg/mL; in the data set on Bacillus subtilis it was 2 µg/mL. The 50% haemolytic concentration (HC50) at 1 h in data set [9] was determined as 1080 µg/mL. In [14], the selectivity ratio was found to be 269.

As usually defined, the HC50 is the concentration that lyses half of the red blood cells.

The values above are taken from ChEMBL document CHEMBL4831516, “Development of Membrane-Active Honokiol/Magnolol Amphiphiles as Potent Antibacterial Agents against Methicillin-Resistant Staphylococcus aureus (MRSA)” (J Med Chem, 2021).
